The values that follow come from US4166911A, “Pyridazinyl-ergoline compounds having neuroleptic activity” (Farmitalia Carlo Erba S.p.A., priority 1977, dated 1979).

One test concerns aggregated mice.
Test: not given
The note with it: result in words, literature; cited from earlier work.
As for `CN(C)CCCN1c2ccccc2Sc2ccc(Cl)cc21` [chlorpromazine], the “reduction of amphetamine toxicity in aggregated mice” value was “clearly reduce the amphetamine toxicity in aggregated mice”.

For the next test, the system named is aggregated mice. The test is described as follows: protection of aggregated mice from amphetamine toxicity (death rate after 24 hours). Particulars: Mus musculus, ip.
As for `COC12C[C@@H](CNc3ccc(Cl)nn3)CN(C)[C@@H]1Cc1cn(C)c3cccc2c13` (stereo partly drawn) [355/902, 10-Methoxy-8β-(6'-chloro-3'-pyridazinylaminomethyl)-1,6-dimethyl-ergoline], the 50% effect level (ED50) was put at a dose of 16.4 mg/kg.
For `COc1ccc(NC[C@H]2CN(C)[C@@H]3Cc4cn(C)c5cccc(c45)C3(OC)C2)nn1` (stereo partly drawn) [/903, 10-Methoxy-8β-(6'-methoxy-3'-pyridazinylaminomethyl)-1,6-dimethylergoline], the ED50 (in general, the dose at which the effect has come halfway, by size or by number of responders) worked out at 30 mg/kg. Against the preceding compound, the ED50 is about 1.8-fold higher.
`COC12C[C@@H](CNc3cccnn3)CN(C)[C@@H]1Cc1cn(C)c3cccc2c13` (stereo partly drawn) [/904, 10-Methoxy-8β-(3'-pyridazinylaminomethyl)-1,6-dimethylergoline] showed an ED50 of 30 mg/kg.
In the case of `COC12C[C@@H](CSc3ccc(O)nn3)CN(C)[C@@H]1Cc1cn(C)c3cccc2c13` (stereo partly drawn) [/914, 10-Methoxy-1,6-dimethyl-8β-(6'-hydroxy-3'-pyridazinylmercaptomethyl)ergoline], the ED50 turned out to be 16.7 mg/kg.
Compound `COC12C[C@@H](CSc3cccnn3)CN(C)[C@@H]1Cc1cn(C)c3cccc2c13` (stereo partly drawn) [/927, 10-Methoxy-1,6-dimethyl-8β-(3'-pyridazinylmercaptomethyl)ergoline] gave an ED50 of 30 mg/kg.
